The source of these data is patent US20230167073A1 (Teijin Pharma Limited, priority 2020, published 2023).

The target of this test is T1, Human TRPC6 (Homo sapiens, UniProt Q9Y210).
T1 construct: expressed in transfected cells
T1 sequence (Q9Y210 1-931): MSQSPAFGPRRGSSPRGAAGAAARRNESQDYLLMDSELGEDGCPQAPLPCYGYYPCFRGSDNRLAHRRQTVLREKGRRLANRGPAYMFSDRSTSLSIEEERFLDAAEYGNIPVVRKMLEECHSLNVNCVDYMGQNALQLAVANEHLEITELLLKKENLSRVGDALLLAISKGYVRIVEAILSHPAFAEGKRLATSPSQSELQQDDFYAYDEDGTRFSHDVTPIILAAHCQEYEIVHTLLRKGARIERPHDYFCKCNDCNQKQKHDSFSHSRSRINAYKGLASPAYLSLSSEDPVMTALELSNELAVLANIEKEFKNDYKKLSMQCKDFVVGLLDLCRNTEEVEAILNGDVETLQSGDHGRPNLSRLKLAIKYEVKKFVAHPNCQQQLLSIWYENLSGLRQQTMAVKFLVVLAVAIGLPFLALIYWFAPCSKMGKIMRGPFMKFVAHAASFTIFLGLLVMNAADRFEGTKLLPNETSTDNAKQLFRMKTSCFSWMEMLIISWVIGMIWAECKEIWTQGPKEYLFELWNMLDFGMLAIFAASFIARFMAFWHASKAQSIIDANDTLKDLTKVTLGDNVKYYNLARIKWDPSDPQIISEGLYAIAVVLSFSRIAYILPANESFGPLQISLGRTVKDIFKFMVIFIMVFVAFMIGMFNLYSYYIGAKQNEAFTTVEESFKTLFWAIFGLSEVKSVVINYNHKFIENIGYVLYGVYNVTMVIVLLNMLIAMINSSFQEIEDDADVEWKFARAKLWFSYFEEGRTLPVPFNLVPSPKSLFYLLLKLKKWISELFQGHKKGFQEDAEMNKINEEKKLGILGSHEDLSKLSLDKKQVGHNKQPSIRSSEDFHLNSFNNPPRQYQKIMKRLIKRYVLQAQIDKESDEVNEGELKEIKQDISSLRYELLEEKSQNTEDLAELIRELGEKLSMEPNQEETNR
As to the kind of experiment: Evaluation of TRPC6 channel inhibitory activity (1), FLIPR Calcium 5 Assay Kit, OAG stimulation (Compound Nos. 1-1293). Format: cell-based. Conditions: Human TRPC6 stably-expressing cells, OAG 30 μM, FLIPR Calcium 5 Assay Kit; read-out: Inhibitory activity (pIC50 class) (converted). The method, boiled down:
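TRPC6 (human) stable cells, 24 h culture; Ca5 no-wash dye + probenecid 30 min; cpd 20 min; OAG 30 μM final; ΔF (pre-cpd min to post-OAG max); 0%/100% = no cpd / no cpd + no OAG; 4PL → pIC50, binned +/++/+++.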
Regarding `Cn1nc(-c2ccccc2)cc1Oc1cc(C#N)ccc1-c1nnc(CN)s1` [compound 583, 4-[5-(aminomethyl)-1,3,4-thiadiazol-2-yl]-3-(2-methyl-5-phenylpyrazol-3-yl)oxybenzonitrile], the IC50 is above 1000 nM.

Take `Cn1nc(N2CCCCC2)cc1Cc1cc(C#N)ccc1-c1ncc(CN)cn1` [compound 1213, 4-[5-(aminomethyl)pyrimidin-2-yl]-3-[(2-methyl-5-piperidin-1-ylpyrazol-3-yl)methyl]benzonitrile]: the IC50 was 10 to 1000 nM. Next, `Cc1nc(NC2CC2)cc(Oc2cc(C#N)ccc2-c2ncc(CN)cn2)n1` [compound 633, 4-[5-(aminomethyl)pyrimidin-2-yl]-3-[6-(cyclopropylamino)-2-methylpyrimidin-4-yl]oxybenzonitrile]: 10 to 1000 nM; `Cn1nc(C2CC2)cc1Oc1cc(C#N)ccc1-c1ccc(C2CNCCO2)cn1` (centres unmarked) [compound 427, 3-(5-cyclopropyl-2-methylpyrazol-3-yl)oxy-4-(5-morpholin-2-ylpyridin-2-yl)benzonitrile]: 10 to 1000 nM. Next, `Cn1nc(C2CCOC2)cc1Oc1cc(C#N)ccc1-c1ccc(CCN)cn1` (centres unmarked) [compound 496, 4-[5-(2-aminoethyl)pyridin-2-yl]-3-[2-methyl-5-(oxolan-3-yl)pyrazol-3-yl]oxybenzonitrile]: below 10 nM; `Cc1nc(Oc2cc(C#N)ccc2-c2ccc3c(c2)C(O)C(N)CC3)cc(-c2ccccc2)n1` (centres unmarked) [Compound 191, 4-(7-amino-8-hydroxy-5,6,7,8-tetrahydronaphthalen-2-yl)-3-(2-methyl-6-phenylpyrimidin-4-yl)oxybenzonitrile]: above 1000 nM. Next, `Cn1nc(C2CC2)cc1Oc1cc(C#N)ccc1-c1ccc(C[C@H](N)C(=O)O)cc1` [compound 436, (2S)-2-amino-3-[4-[4-cyano-2-(5-cyclopropyl-2-methylpyrazol-3-yl)oxyphenyl]phenyl]propanoic acid]: above 1000 nM; `N#Cc1ccc(-c2ccc(C(O)CN)cc2)c(Cn2cnc(-c3ccccc3)c2)c1` (centres unmarked) [compound 1129, 4-[4-(2-amino-1-hydroxyethyl)phenyl]-3-[(4-phenylimidazol-1-yl)methyl]benzonitrile]: below 10 nM. Consider `Cc1cc(Oc2cc(C#N)ccc2-c2ccc([C@H](O)CN)cn2)cc(N2CCOC[C@H]2C)n1` [compound 550, 4-[5-[(1S)-2-amino-1-hydroxyethyl]pyridin-2-yl]-3-[2-methyl-6-[(3R)-3-methylmorpholin-4-yl]pyridin-4-yl]oxybenzonitrile], for which the IC50 is below 10 nM. Next, `Cc1nc(C(=O)c2cc(F)ccc2-c2ncc(CN)cn2)cc(N2CCOCC2)n1` [compound 1104, [2-[5-(aminomethyl)pyrimidin-2-yl]-5-fluorophenyl]-(2-methyl-6-morpholin-4-ylpyrimidin-4-yl)methanone]: above 1000 nM; `CCN(CC)c1cc(Cc2cc(C#N)ccc2-c2ncc(CN)cn2)n(C)n1` [compound 1206, 4-[5-(aminomethyl)pyrimidin-2-yl]-3-[[5-(diethylamino)-2-methylpyrazol-3-yl]methyl]benzonitrile]: below 10 nM; `Cn1nc(C2CC2)cc1Oc1cc(C#N)ccc1-c1cc(C(=O)NCCN)ccn1` [compound 551, N-(2-aminoethyl)-2-[4-cyano-2-(5-cyclopropyl-2-methylpyrazol-3-yl)oxyphenyl]pyridine-4-carboxamide]: 10 to 1000 nM. With `Cc1cc(Oc2cc(C#N)ccc2-c2ccc(CCN)cn2)cc(N2CCN(C)C(=O)C2)n1` [compound 464, 4-[5-(2-aminoethyl)pyridin-2-yl]-3-[2-methyl-6-(4-methyl-3-oxopiperazin-1-yl)pyridin-4-yl]oxybenzonitrile], the IC50 was above 1000 nM. Next, `Cc1cc(Oc2cc(C#N)ccc2-c2ncc(CN)cn2)no1` [compound 676, 4-[5-(aminomethyl)pyrimidin-2-yl]-3-[(5-methyl-1,2-oxazol-3-yl)oxy]benzonitrile]: above 1000 nM; `Cn1nc(-c2cnccn2)cc1Oc1cc(C#N)ccc1-c1ncc(CN)cn1` [Compound No. 931, 4-[5-(Aminomethyl)pyrimidin-2-yl]-3-(2-methyl-5-pyrazin-2-ylpyrazol-3-yl)oxybenzonitrile]: 10 to 1000 nM; `CC(C)CNC(=O)c1cncn1Cc1cc(C#N)ccc1-c1ccc(CCN)cc1` [compound 1115, 3-[[2-[4-(2-aminoethyl)phenyl]-5-cyanophenyl]methyl]-N-(2-methylpropyl)imidazole-4-carboxamide]: above 1000 nM. Next, `N#Cc1ccc(-c2ncc(CN)cn2)c(C(=O)c2cnn(-c3nccs3)c2)c1` [compound 1050, 4-[5-(aminomethyl)pyrimidin-2-yl]-3-[1-(1,3-thiazol-2-yl)pyrazole-4-carbonyl]benzonitrile]: 10 to 1000 nM.

Regarding `Cc1sc(N2CCOCC2)nc1C(=O)c1cc(C#N)ccc1-c1ccc(CN)cn1` [compound 1067, 4-[5-(aminomethyl)pyridin-2-yl]-3-(5-methyl-2-morpholin-4-yl-1,3-thiazole-4-carbonyl)benzonitrile], the IC50 was above 1000 nM. The same measure for `N#Cc1ccc(-c2ccc(CN)cn2)c(Oc2cnnc(N3CCCCC3)c2)c1` [compound 697, 4-[5-(aminomethyl)pyridin-2-yl]-3-(6-piperidin-1-ylpyridazin-4-yl)oxybenzonitrile]: below 10 nM.

In the case of `Cn1nc(-c2cccc(F)c2)cc1Oc1cc(C#N)ccc1-c1ncc(CCN)cn1` [compound 402, 4-[5-(2-aminoethyl)pyrimidin-2-yl]-3-[5-(3-fluorophenyl)-2-methylpyrazol-3-yl]oxybenzonitrile], the IC50 is below 10 nM.

As to `Cc1cc(C(C)(C)C)nn1Cc1cc(C#N)ccc1-c1ccc(CCN)cn1` [compound 1159, 4-[5-(2-aminoethyl)pyridin-2-yl]-3-[(3-tert-butyl-5-methylpyrazol-1-yl)methyl]benzonitrile], the IC50 is 10 to 1000 nM. The same measure for `Cc1ccc(-c2cc(Oc3cc(C#N)ccc3-c3ccc(C(O)CN)cc3)n(C)n2)nc1` (centres unmarked) [Compound 180, 4-[4-(2-amino-1-hydroxyethyl)phenyl]-3-[2-methyl-5-(5-methylpyridin-2-yl)pyrazol-3-yl]oxybenzonitrile]: below 10 nM. The same measure for `CCN(c1cc(Oc2cc(C#N)ccc2-c2ncc(CCN)cn2)n(C)n1)C(C)C` [compound 842, 4-[5-(2-aminoethyl)pyrimidin-2-yl]-3-[5-[ethyl(propan-2-yl)amino]-2-methylpyrazol-3-yl]oxybenzonitrile]: below 10 nM; for `Cc1cc(Oc2cc(C#N)ccc2-c2ccc(CCN)cc2)cc(N2CCOCC2)n1` [Compound 138, 4-[4-(2-aminoethyl)phenyl]-3-(2-methyl-6-morpholin-4-ylpyridin-4-yl)oxybenzonitrile]: below 10 nM; for `N#Cc1ccc(-c2ncc(CCN)cn2)c(Cn2cc(-c3ccccc3)cn2)c1` [compound 1201, 4-[5-(2-aminoethyl)pyrimidin-2-yl]-3-[(4-phenylpyrazol-1-yl)methyl]benzonitrile]: 10 to 1000 nM. For `CN(CCF)c1cc(Oc2cc(C#N)ccc2-c2ncc(CCN)cn2)n(C)n1` [compound 822, 4-[5-(2-aminoethyl)pyrimidin-2-yl]-3-[5-[2-fluoroethyl(methyl)amino]-2-methylpyrazol-3-yl]oxybenzonitrile], the IC50 is below 10 nM.
